Patent US4369191A, “Naphthalenetetrayltetrakis(sulfonylimino)-tetrabenzene di- and tricarboxylic acids” (American Cyanamid Company, priority 1981, dated 1983)
Counter-ions that a name gives are not always drawn.

Key:
[1] = tested on: complement activity; test: Guinea Pig Intraperitoneal Test (GPIP); type: in vivo; details: 200 mg/kg i.p.; for In vivo Activity (Guinea Pigs) % Inhibition Intraperitoneal, 30 minutes: serum complement activity 30 minutes after injection; for In vivo Activity (Guinea Pigs) % Inhibition Intraperitoneal, 60 minutes: serum complement activity 60 minutes after injection; for In vivo Activity (Guinea Pigs) % Inhibition Intraperitoneal, 120 minutes: serum complement activity 120 minutes after injection
Excerpt: (§1) An active inhibitor protects C2 from C1 and C4; (ii) Test Code 035 (C3-C9 inhibitor)--This test determines the ability of the late components of human complement (C3-C9) to lyse EAC 142 in the presence of appropriate dilutions of the test compound. An active inhibitor protects EAC 142 from lysis by human C3-C9; (iii) Test Code 036 (C-Shunt inhibitor)--In this test human erythrocytes rendered fragile are lysed in autologous serum via the shunt pathway activated by cobra venom factor in the presence of appropriate dilutions of the test compound. Inhibition of the shunt pathway results in failure of lysis; (iv) Cap 50 Test--Here, appropriate amounts of the test compound are added to a pool of guinea pig serum in vitro, after which the undiluted serum capillary tube assay of U.S. Pat. No. 3,876,376 is run. The concentration of compound inhibiting 50% is reported; and (v) Guinea Pig Intraperitoneal Test (GPIP)--Guinea pigs weighing about 300 g are dosed intraperitoneally (i.p.) with 200 mg/kg of the test compound dissolved in saline and adjusted to pH 7-8. Approximately 0.4 ml blood samples, taken by orbital sinus puncture 30 minutes and one hour after injections, are collected directly into centrifuge tubes; 5 ml blood samples, taken by decapitation 2 hours after injection are collected directly into diSPo® beakers. The samples were allowed to clot, centrifuged, and the resultant sera were assayed for complement activity using the capillary complement assay. Percent inhibition is calculated by comparison with simultaneous controls. The results of the GPIP appear in Table I together with results of Test Code 026, 035, 036 and Cap 50.

[2] = biological target: T1, activated human C1 (Homo sapiens, UniProt P09871); test: Test Code 026 (C1 inhibitor); type: biochemical; details: in vitro; serial twofold dilution assay, higher well number indicates higher activity
T1 construct: fluid-phase human C2 as substrate in presence of C4
Excerpt: as §1, with “Approximately 0.4 ml blood samples, taken by orbital sinus puncture 30 minutes and one hour after injections, are collected directly into centrifuge tubes; 5 ml blood samples, taken by decapitation 2 hours after injection are collected directly into diSPo® beakers. The samples were allowed to clot, centrifuged, and the resultant sera were assayed for complement activity using the capillary complement assay.” left out, “The results of the GPIP appear in Table I together with results of Test Code 026, 035, 036 and Cap 50.” left out

[3] = tested on: late components of human complement (C3-C9); test: Test Code 035 (C3-C9 inhibitor), lysis of EAC 142; type: biochemical; details: in vitro; serial twofold dilution assay, higher well number indicates higher activity
Excerpt: as §1, with “Approximately 0.4 ml blood samples, taken by orbital sinus puncture 30 minutes and one hour after injections, are collected directly into centrifuge tubes; 5 ml blood samples, taken by decapitation 2 hours after injection are collected directly into diSPo® beakers. The samples were allowed to clot, centrifuged, and the resultant sera were assayed for complement activity using the capillary complement assay.” left out, “The results of the GPIP appear in Table I together with results of Test Code 026, 035, 036 and Cap 50.” left out

[4] = tested on: shunt pathway; test: Test Code 036 (C-Shunt inhibitor), lysis of human erythrocytes in autologous serum activated by cobra venom factor; type: cell-based; details: in vitro; serial twofold dilution assay, higher well number indicates higher activity
Excerpt: as §1, with “Approximately 0.4 ml blood samples, taken by orbital sinus puncture 30 minutes and one hour after injections, are collected directly into centrifuge tubes; 5 ml blood samples, taken by decapitation 2 hours after injection are collected directly into diSPo® beakers. The samples were allowed to clot, centrifuged, and the resultant sera were assayed for complement activity using the capillary complement assay.” left out, “The results of the GPIP appear in Table I together with results of Test Code 026, 035, 036 and Cap 50.” left out

T1 sequence (P09871 16-688): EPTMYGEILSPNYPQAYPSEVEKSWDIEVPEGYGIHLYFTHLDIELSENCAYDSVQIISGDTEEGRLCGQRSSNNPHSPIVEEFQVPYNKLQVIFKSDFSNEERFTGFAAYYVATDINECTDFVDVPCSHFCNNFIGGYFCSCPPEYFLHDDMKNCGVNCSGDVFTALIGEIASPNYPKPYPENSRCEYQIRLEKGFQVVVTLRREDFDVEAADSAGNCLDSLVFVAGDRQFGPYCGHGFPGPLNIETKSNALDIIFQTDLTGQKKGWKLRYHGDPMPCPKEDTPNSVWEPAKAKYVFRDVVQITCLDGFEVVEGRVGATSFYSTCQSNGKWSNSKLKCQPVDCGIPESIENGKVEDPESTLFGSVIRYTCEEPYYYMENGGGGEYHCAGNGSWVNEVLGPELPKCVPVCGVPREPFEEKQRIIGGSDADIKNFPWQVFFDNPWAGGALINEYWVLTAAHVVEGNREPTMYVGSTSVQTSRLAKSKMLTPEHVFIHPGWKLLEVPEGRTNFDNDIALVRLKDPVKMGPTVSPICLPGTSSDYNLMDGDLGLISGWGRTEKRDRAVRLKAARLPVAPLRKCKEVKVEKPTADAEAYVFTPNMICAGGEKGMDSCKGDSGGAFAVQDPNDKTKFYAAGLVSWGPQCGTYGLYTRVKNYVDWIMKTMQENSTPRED
T1 sequence (P00736 18-705 partner): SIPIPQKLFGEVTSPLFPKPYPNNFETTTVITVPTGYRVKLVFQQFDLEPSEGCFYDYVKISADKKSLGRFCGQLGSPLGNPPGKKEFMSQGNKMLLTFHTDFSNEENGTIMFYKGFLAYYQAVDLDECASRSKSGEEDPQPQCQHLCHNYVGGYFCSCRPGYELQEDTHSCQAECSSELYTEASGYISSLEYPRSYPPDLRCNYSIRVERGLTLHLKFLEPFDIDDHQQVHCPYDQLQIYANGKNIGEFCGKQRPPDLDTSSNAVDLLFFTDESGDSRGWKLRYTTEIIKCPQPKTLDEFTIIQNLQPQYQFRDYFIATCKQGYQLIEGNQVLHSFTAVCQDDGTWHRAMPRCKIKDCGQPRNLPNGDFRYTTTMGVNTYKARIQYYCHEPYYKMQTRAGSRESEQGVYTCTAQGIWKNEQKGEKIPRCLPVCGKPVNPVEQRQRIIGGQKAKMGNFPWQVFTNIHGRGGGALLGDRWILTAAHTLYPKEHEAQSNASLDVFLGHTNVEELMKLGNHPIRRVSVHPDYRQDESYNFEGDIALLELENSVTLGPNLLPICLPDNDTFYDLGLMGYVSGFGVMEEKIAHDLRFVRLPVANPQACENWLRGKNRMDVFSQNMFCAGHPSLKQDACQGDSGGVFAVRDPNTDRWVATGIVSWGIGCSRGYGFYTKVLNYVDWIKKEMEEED
T1 sequence (P02745 23-245 partner): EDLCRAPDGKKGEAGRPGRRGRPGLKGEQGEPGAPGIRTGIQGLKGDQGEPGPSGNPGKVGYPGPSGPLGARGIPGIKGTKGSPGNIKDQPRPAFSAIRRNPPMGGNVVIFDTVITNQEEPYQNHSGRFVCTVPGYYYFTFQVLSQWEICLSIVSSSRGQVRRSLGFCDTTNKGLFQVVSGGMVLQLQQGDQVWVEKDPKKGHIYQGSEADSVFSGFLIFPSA
T1 sequence (P02746 28-253 partner): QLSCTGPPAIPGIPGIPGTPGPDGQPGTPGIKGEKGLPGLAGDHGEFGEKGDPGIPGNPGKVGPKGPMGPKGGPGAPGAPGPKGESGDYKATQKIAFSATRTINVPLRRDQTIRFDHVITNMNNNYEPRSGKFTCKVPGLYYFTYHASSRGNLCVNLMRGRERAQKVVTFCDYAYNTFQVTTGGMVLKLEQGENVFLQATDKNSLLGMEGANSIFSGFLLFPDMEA
T1 sequence (P02747 29-245 partner): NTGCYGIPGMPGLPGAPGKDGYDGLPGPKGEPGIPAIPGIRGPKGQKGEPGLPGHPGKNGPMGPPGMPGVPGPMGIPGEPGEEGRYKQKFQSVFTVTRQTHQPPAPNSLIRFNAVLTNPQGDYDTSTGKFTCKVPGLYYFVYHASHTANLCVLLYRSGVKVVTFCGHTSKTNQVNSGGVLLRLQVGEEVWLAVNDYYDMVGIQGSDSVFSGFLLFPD

O=C([O-])c1cc(NS(=O)(=O)c2cc(S(=O)(=O)Nc3cc(C(=O)[O-])cc(C(=O)[O-])c3)c3cc(S(=O)(=O)Nc4cc(C(=O)[O-])cc(C(=O)[O-])c4)cc(S(=O)(=O)Nc4cc(C(=O)[O-])cc(C(=O)[O-])c4)c3c2)cc(C(=O)[O-])c1.[Na+].[Na+].[Na+].[Na+].[Na+].[Na+].[Na+].[Na+] [5,5',5",5"'-[1,3,5,7-Naphthalenetetrayltetrakis(sulfonylimino)]tetraisophthalic acid, octasodium salt]
In vivo Activity (Guinea Pigs) % Inhibition Intraperitoneal, 30 minutes [1]: 66%
In vivo Activity (Guinea Pigs) % Inhibition Intraperitoneal, 60 minutes [1]: 71%
In vivo Activity (Guinea Pigs) % Inhibition Intraperitoneal, 120 minutes [1]: 76%
Cl 026* Wells [2]: 7 Wells
C-Late 035* Wells [3]: 2 Wells
C-Shunt Inhibition 036* Wells [4]: 6 Wells

O=C(O)c1cc(NS(=O)(=O)c2cc(S(=O)(=O)Nc3cc(C(=O)O)c(C(=O)O)c(C(=O)O)c3)c3cc(S(=O)(=O)Nc4cc(C(=O)O)c(C(=O)O)c(C(=O)O)c4)cc(S(=O)(=O)Nc4cc(C(=O)O)c(C(=O)O)c(C(=O)O)c4)c3c2)cc(C(=O)O)c1C(=O)O [5,5',5",5'"-[1,3,5,7-Naphthalenetetrayltetrakis(sulfonylimino)]tetra-1,2,3-benzenetricarboxylic acid, dodecasodium salt]
In vivo Activity (Guinea Pigs) % Inhibition Intraperitoneal, 30 minutes [1]: 80%
In vivo Activity (Guinea Pigs) % Inhibition Intraperitoneal, 60 minutes [1]: 77%
In vivo Activity (Guinea Pigs) % Inhibition Intraperitoneal, 120 minutes [1]: 85%
Cl 026* Wells [2]: 8 Wells
C-Late 035* Wells [3]: 5 Wells
C-Shunt Inhibition 036* Wells [4]: 5 Wells
